These results are taken from patent US8487108B2, “Piperidinyl carbamate intermediates for the synthesis of aspartic protease inhibitors” (Vitae Pharmaceuticals, Inc., priority 2005, dated 2013).

The structures appear in SMILES notation.

The target of series [1] is T1, trypsin-activated recombinant human renin (Homo sapiens, UniProt P00797).
T1 sequence (P00797 67-406): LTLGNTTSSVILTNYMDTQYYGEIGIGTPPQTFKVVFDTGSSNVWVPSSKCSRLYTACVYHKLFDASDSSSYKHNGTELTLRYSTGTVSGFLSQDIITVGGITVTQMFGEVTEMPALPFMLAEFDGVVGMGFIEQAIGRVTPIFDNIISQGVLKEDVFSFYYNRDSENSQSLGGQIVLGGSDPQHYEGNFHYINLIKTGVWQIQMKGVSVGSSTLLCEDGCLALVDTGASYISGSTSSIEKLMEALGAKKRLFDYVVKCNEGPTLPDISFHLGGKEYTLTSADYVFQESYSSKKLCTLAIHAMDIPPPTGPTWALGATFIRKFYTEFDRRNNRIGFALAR
The series is described as follows: Renin fluorescence assay (internally quenched peptide substrate). It counts as biochemical. The method in brief: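 Compounds (1 nM–10 μM final, DMSO) were mixed with internally quenched angiotensinogen-sequence substrate in pH 7.0 BES/NaCl/BSA buffer, then 0.2-2 nM trypsin-activated human renin added. Rate from the linear fluorescence increase (340 nm excitation, 495 nm emission) over 60-360 min at rt, compared with uninhibited control.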

Series [2] addresses T2, plasma renin activity (PRA) in pooled mixed-gender human plasma (Homo sapiens, UniProt P00797).
T2 construct: pooled mixed-gender human plasma stabilized with EDTA; from tissue; host or cells: pooled mixed-gender human plasma (EDTA)
T2 sequence (P00797 67-406): T1 sequence (P00797 67-406)
The series is described as follows: Plasma renin activity (PRA) assay in human plasma. In kind it is biochemical. Here is the method:
Incubations mixtures contain in the final volume of 250 μL 95.5 mM N,N-bis(2-hydroxyethyl)-2-aminoethanesulfonic acid, pH 7.0, 8 mM EDTA, 0.1 mM neomycin sulfate, 1 mg/mL sodium azide, 1 mM phenylmethanesulfonyl fluoride, 2% DMSO and 87.3% of pooled mixed-gender human plasma stabilized with EDTA. For plasma batches with low PRA (less than 1 ng/ml/hr) ˜2 pM of recombinant human renin is added to achieve PRA of 3-4 ng/ml/hr. The cleavage of endogenous angiotensinogen in plasma is carried out at 37° C. for 90 min and the product angiotensin I is measured by competitive radioimmunoassay using DiaSorin PRA kit.

Series [3] deals with double transgenic rats engineered to express human renin and human angiotensinogen. The series is described as follows: Blood pressure by telemetry in double transgenic rats. It counts as in vivo, rat. The conditions noted are these: dosage of 10 mg/kg, oral. Here is the method: Double Transgenic Rats: The efficacy of the renin inhibitors can also evaluated in vivo in double transgenic rats engineered to express human renin and human angiotensinogen (Bohlender J, Fukamizu A, Lippoldt A, Nomura T, Dietz R, Menard J, Murakami K, Luft F C, Ganten D. High human renin hypertension in transgenic rats. Hypertension 1997, 29, 428-434).
(§1) Experiments were conducted in 6-week-old double transgenic rats (dTGRs). The model has been described in detail earlier. […] The human angiotensinogen construct made up the entire human angiotensinogen gene (5 exons and 4 introns), with 1.3 kB of 5′-flanking and 2.4 kB of 3′-flanking sequences. The rats were purchased from RCC Ltd (Füllinsdorf, Switzerland). Radio telemetry transmitters were surgically implanted at 4 weeks of age. The telemetry system provided 24-h recordings of systolic, mean, diastolic arterial pressure (SAP, MAP, DAP, respectively) and heart rate (HR). Beginning on day 42, animals were transferred to telemetry cages. A 24 h telemetry reading was obtained. Rats were then dosed orally on the following 4 consecutive days (days 43-46). The rats were monitored continuously and allowed free access to standard 0.3%-sodium rat chow and drinking water.

The nature of series [4]: Plasma concentration in double transgenic rats after oral administration. In kind it is in vivo, rat. To be noted: 10 mg/kg oral. Here is the method: FIG. 2 is a plot showing mean plasma concentrations of compound L-6a in transgenic rats over time following oral administration of 10 mg/kg of compound L-6a.
as §1

The IC50 is the concentration that inhibits the measured activity by half.

On to `COC(=O)NCCO[C@@H](c1cc(Cl)ccc1C)[C@@H]1CCCN(C(=O)NC[C@@H](N)C[C@H]2CCCOC2)C1` [XL-5, methyl 2-((R)-((R)-1-((S)-2-amino-3-((R)-tetrahydro-2H-pyran-3-yl)propylcarbamoyl)piperidin-3-yl)(5-chloro-2-methylphenyl)methoxy)ethylcarbamate], for which the IC50 in series [1] (compounds of Formula (XL)) and in series [2] (compounds of Formula (XL)) was under 1 nM in each case.
For `CNC[C@@H](CC1CCCOC1)NC(=O)N1CCC[C@@H]([C@@H](OCCNC(=O)OC)c2cc(F)cc(Cl)c2)C1` (single isomer, unassigned) [Example L-3c], the IC50 in series [1] (compounds of Formula (L)) and in series [2] (compounds of Formula (L)) was under 10 nM in each case.
Consider `CNC[C@H](C[C@H]1CCCOC1)NC(=O)N1CCC[C@@H]([C@@H](OCCNC(=O)OC)c2cccc(Cl)c2)C1` [Example L-6a, methyl 2-((R)-(3-chlorophenyl)((R)-1-((S)-1-(methylamino)-3-((R)-tetrahydro-2H-pyran-3-yl)propan-2-ylcarbamoyl)-piperidin-3-yl)methoxy)-ethylcarbamate], for which the “effect in lowering blood pressures of double transgenic rats” value in series [3] was “significant effect in lowering blood pressures”. Moreover, in series [4], the “availability in rat's plasma following oral administration” value is listed as “readily available in rat's plasma”, the metabolic stability entry was “excellent” and the oral bioavailability entry was “excellent”. Further, the “plasma concentration over 24 h period” value in series [4] (over 24 h) was “remains relatively high”.
Take `CNC[C@@H](CC1CCCOC1)NC(=O)N1CCC[C@@H]([C@@H](OCCNC(=O)OC)c2cc(F)cc(Cl)c2)C1` (single isomer, unassigned) [Example L-3d]: the IC50 in series [1] (compounds of Formula (L)) and in series [2] (compounds of Formula (L)) was under 20 nM each time.
Consider `COC(=O)NCCO[C@@H](c1cc(F)cc(F)c1)[C@@H]1CCCN(C(=O)NC[C@@H](N)C[C@H]2CCCOC2)C1` [XL-4, methyl 2-((R)-((R)-1-((S)-2-amino-3-((R)-tetrahydro-2H-pyran-3-yl)propylcarbamoyl)piperidin-3-yl)(3,5-difluorophenyl)methoxy)ethylcarbamate], for which the IC50 in series [1] (compounds of Formula (XL)) and in series [2] (compounds of Formula (XL)) was under 10 nM in each case.
As to `COC(=O)NCCO[C@@H](c1cccc(F)c1)[C@@H]1CCCN(C(=O)NC[C@@H](N)C[C@H]2CCCOC2)C1` [XL-2, methyl 2-((R)-((R)-1-((S)-2-amino-3-((R)-tetrahydro-2H-pyran-3-yl)propylcarbamoyl)piperidin-3-yl)(3-fluorophenyl)methoxy)ethylcarbamate], the 50% inhibitory concentration (IC50) in series [1] (compounds of Formula (XL)) is under 10 nM; in series [2] (compounds of Formula (XL)) it was under 20 nM.
For `COC(=O)NCCO[C@@H](c1cccc(Cl)c1)[C@@H]1CCCN(C(=O)NC[C@@H](N)C[C@H]2CCCOC2)C1` [XL-1, methyl 2-((R)-((R)-1-((S)-2-amino-3-((R)-tetrahydro-2H-pyran-3-yl)propylcarbamoyl)piperidin-3-yl)(3-chlorophenyl)methoxy)ethylcarbamate], in that order: under 10 nM and under 10 nM.
For `COC(=O)NCCO[C@@H](c1cc(F)ccc1C)[C@@H]1CCCN(C(=O)NC[C@@H](N)C[C@H]2CCCOC2)C1` [XL-6, methyl 2-((R)-((R)-1-((S)-2-amino-3-((R)-tetrahydro-2H-pyran-3-yl)propylcarbamoyl)piperidin-3-yl)(5-fluoro-2-methylphenyl)methoxy)ethylcarbamate], in that order: under 10 nM and under 50 nM.
For `COC(=O)NCCO[C@@H](c1cc(F)cc(Cl)c1)[C@@H]1CCCN(C(=O)NC[C@@H](N)C[C@H]2CCCOC2)C1` [XL-3, methyl 2-((R)-((R)-1-((S)-2-amino-3-((R)-tetrahydro-2H-pyran-3-yl)propylcarbamoyl)piperidin-3-yl)(3-chloro-5-fluorophenyl)methoxy)ethylcarbamate], in that order: under 10 nM and under 10 nM.
As for `CN[C@H](CNC(=O)N1CCC[C@@H]([C@@H](OCCNC(=O)OC)c2cc(Cl)ccc2C)C1)C[C@H]1CCCOC1` [XL-8, methyl 2-((R)-(5-chloro-2-methylphenyl)((R)-1-((S)-2-(methylamino)-3-((R)-tetrahydro-2H-pyran-3-yl)propylcarbamoyl)piperidin-3-yl)methoxy)ethylcarbamate], the figures for the IC50 in series [1] (compounds of Formula (XL)) and in series [2] (compounds of Formula (XL)) were under 1 nM and under 10 nM, respectively.
On to `CN[C@H](CNC(=O)N1CCC[C@@H]([C@@H](OCCNC(=O)OC)c2cccc(Cl)c2)C1)C[C@H]1CCCOC1` [XL-7, methyl 2-((R)-(3-chlorophenyl)((R)-1-((S)-2-(methylamino)-3-((R)-tetrahydro-2H-pyran-3-yl)propylcarbamoyl)piperidin-3-yl)methoxy)ethylcarbamate], for which, in series [3], the “effect in lowering blood pressures of double transgenic rats” value is reported as “significant effect in lowering blood pressures”. Moreover, the IC50 in series [1] (compounds of Formula (XL)) was under 1 nM; in series [2] (compounds of Formula (XL)) it was under 10 nM.
